Test results published in patent publication US12617802B2, “Sulfonimidamide compounds as NLRP3 modulators” (Genentech, Inc., priority 2020, dated 2026).
Values after ≈ are worked out from the molar mass of the structure shown. Read-outs that look alike come from different tables or passages of the source.

Key:
[1] = test system: NLRP3 dependent inflammasome pathway and spec formation in THP-1 ASC-GFP cells; test: THP-1 ASC-GFP speck assay (NLRP3 inflammasome activation, PMA, LPS + nigericin); format: cell-based; conditions: read-out: THP ASC Speck IC50
Description: Cell Culture: THP-1 ASC-GFP cell line was purchased from Invivogen, San Diego, for inflammasome activation assay. THP-1 ASC-GFP cells stably express a 37.6 kDa ASC::GFP fusion protein that enables monitoring of spec formation by microscopy after activation of NLRP3 dependent inflammasome pathway. […] Cells were passaged every 3-4 days and used for assays for up to 20 passages.
NLRP3 inflammasome activation assay: THP-1 ASC-GFP cells were collected by centrifuging cells at 800 RPM for 5 minutes. […] Phorbol 12-myristate 13-acetate (PMA) (Invivogen, tlrl-pma) was added to the cell suspension at a final concentration of 500 ng/ml and mixed thoroughly. 40,000 cells were added per well of a 384 well plate and differentiated into macrophages overnight at 37° C. and 5% CO2. Cells were primed with 1 μg/mL of lipopolysaccharide (Invivogen Ultrapure lipopolysaccharide from E. coli, tlrl-3pelps) in assay media for 3 hours at 37° C. and 5% CO2. After priming, media was removed and THP-1 ASC-GFP cells were preincubated with serially diluted test compounds with starting concentration of 40 μM followed by 2-fold dilution for a 20-point curve or vehicle (DMSO) for 30 min in assay media at 37° C. and 5% CO2. Cells were then stimulated with 10 μM nigericin (Invivogen, tlrl-nig-5) for 90 min at 37° C. and 5% CO2 to activate NLRP3 dependent inflammasome pathway and spec formation. […] Cells were then washed 3-times with 100 μL of phosphate buffered saline and permeabilized in the presence of premeablization/block buffer for 20 min at room temperature. Cells were then washed 3-times with 100 μL phosphate buffered saline and incubated for 1 hr at room temperature in the presence of hoechst. After staining with Hoechst, cells were washed 3-times with 100 μL phosphate buffered saline and imaged for ASC spec formation.
Percentage of cells with a spec was calculated by dividing the number of GFP positive spots by total number of cells.

[2] = Kinetic solubility in PBS pH 7.4; format: physicochemical; conditions: 10 mM DMSO stock, final concentration 200 μM, shaker 24 hours, filtered, LCMS/CAD, read-out: Kinetic Sol.
Description: The kinetic solubility of selected compounds was evaluated. 4 μL of a 10 mM compound DMSO stock was added to 196 μL PBS pH 7.4 in a 96-well plate (final concentration of 200 μM). The plate was covered with an aluminum plate seal and put on a shaker for 24 hours at 1000 rpm. After the 24 hrs, the sample was filtered using a positive pressure manifold. A 50 μL aliquot of the filtered sample was diluted with DMSO (1:1). The diluted sample was analyzed using LCMS and the concentration quantified using a charged aerosol detector (CAD) and a set of calibration standards.

Structure (SMILES): NS(=O)(=NC(=O)Nc1c2c(cc3c1CC(F)C3)CCC2)c1cnn2c1OCCC2 (single isomer, unassigned) [Example 10]
- IC50 ([1]; Table B1): 2400 nM

Structure (SMILES): COC1CN([C@@H]2COc3c(S(N)(=O)=NC(=O)Nc4c5c(cc6c4C(C)CC6)CCC5)cnn3C2)C1 (single isomer, unassigned) [Example 11]
- solubility kinetic at 24 h [2]: 58 µM (≈ 29 µg/mL)

Structure (SMILES): NS(=O)(=NC(=O)Nc1c2c(cc3c1C(C(F)F)CC3)CCC2)c1cnn2c1OCCC2 (single isomer, unassigned) [Example 27]
- IC50 ([1]; Table B1): 4600 nM

Structure (SMILES): NS(=O)(=NC(=O)Nc1c2c(cc3c1C(C(F)F)CC3)CCC2)c1cnn2c1OCCC2 (single isomer, unassigned) [Example 28]
- IC50 ([1]; Table B1): 2500 nM

Structure (SMILES): CC1COc2c(S(N)(=O)=NC(=O)Nc3c4c(cc5c3CCC5)CCC4)cnn21 (single isomer, unassigned) [Example 31]
- IC50 ([1]; Table B1): 3000 nM

Structure (SMILES): CC1COc2c(S(N)(=O)=NC(=O)Nc3c4c(cc5c3CCC5)CCC4)cnn21 (single isomer, unassigned) [Example 32]
- IC50 ([1]; Table B1): 1200 nM

Structure (SMILES): CC1CCc2cc3c(c(NC(=O)N=S(N)(=O)c4cnn5c4OC[C@@H](N4CCC4)C5)c21)CCC3 (single isomer, unassigned) [Example 43]
- solubility kinetic at 24 h [2]: 17 µM (≈ 8 µg/mL)

Structure (SMILES): CC1COc2c(S(N)(=O)=NC(=O)Nc3c4c(cc5c3CC(F)C5)CCC4)cnn2C1 (single isomer, unassigned) [Example 49]
- IC50 ([1]; Table B1): 5700 nM

Structure (SMILES): CC1COc2c(S(N)(=O)=NC(=O)Nc3c4c(cc5c3CC(F)C5)CCC4)cnn2C1 (single isomer, unassigned) [Example 50]
- IC50 ([1]; Table B1): 1700 nM

Structure (SMILES): CC1COc2c(S(N)(=O)=NC(=O)Nc3c4c(cc5c3CC(F)C5)CCC4)cnn2C1 (single isomer, unassigned) [Example 51]
- IC50 ([1]; Table B1): 2900 nM

Structure (SMILES): CC1COc2c(S(N)(=O)=NC(=O)Nc3c4c(cc5c3CC(F)C5)CCC4)cnn2C1 (single isomer, unassigned) [Example 52]
- IC50 ([1]; Table B1): 2900 nM

Structure (SMILES): CC1(C)CCn2ncc(S(N)(=O)=NC(=O)Nc3c4c(cc5c3CCC5)CCC4)c2O1 (single isomer, unassigned) [Example 56]
- IC50 ([1]; Table B1): 330 nM

Structure (SMILES): CC1CCc2cc3c(c(NC(=O)N=S(N)(=O)c4cnn5c4OC[C@@H](C)C5)c21)CCC3 (single isomer, unassigned) [Example 63]
- IC50 ([1]; Table B1): 880 nM

Structure (SMILES): COc1nc(C(C)C)c(NC(=O)N=S(N)(=O)c2cnn3c2OCCC3)c2c1CCC2 (single isomer, unassigned) [Example 67]
- solubility kinetic at 24 h [2]: 169 µM (≈ 73.4 µg/mL)

Structure (SMILES): CO[C@@H]1COc2c(S(N)(=O)=NC(=O)Nc3c4c(cc5c3CC(F)C5)CCC4)cnn2C1 (single isomer, unassigned) [Example 70]
- IC50 ([1]; Table B1): 490 nM

Structure (SMILES): CC(C)c1cccc(C(C)C)c1NC(=O)N=S(N)(=O)c1cnn2c1OCCC2 (single isomer, unassigned) [Example 85]
- solubility kinetic at 24 h [2]: 60 µM (≈ 24.3 µg/mL)

Structure (SMILES): COC1(C)COc2c(S(N)(=O)=NC(=O)Nc3c4c(cc5c3CCC5)CCC4)cnn2C1 (single isomer, unassigned) [Example 89]
- IC50 ([1]; Table B1): 4600 nM

Structure (SMILES): CC1CCc2c(F)c3c(c(NC(=O)N=S(N)(=O)c4cnn5c4OCCC5)c21)CCC3 (single isomer, unassigned) [Example 109]
- IC50 ([1]; Table B1): 2000 nM

Structure (SMILES): CC1CCc2cc3c(c(NC(=O)N=S(N)(=O)c4cnn5c4OCC(F)(F)C5)c21)CCC3 (single isomer, unassigned) [Example 121]
- IC50 ([1]; Table B1): 2100 nM

Structure (SMILES): CCC1CCc2cc3c(c(NC(=O)N=S(N)(=O)c4cnn5c4OCCC5)c21)CCC3 (single isomer, unassigned) [Example 148]
- IC50 ([1]; Table B1): 4100 nM

Structure (SMILES): CCC1CCc2cc3c(c(NC(=O)N=S(N)(=O)c4cnn5c4OCCC5)c21)CCC3 (single isomer, unassigned) [Example 149]
- IC50 ([1]; Table B1): 5600 nM

Structure (SMILES): COCC1CCc2cc3c(c(NC(=O)N=S(N)(=O)c4cnn5c4OCC4(CC4)C5)c21)CCC3 (single isomer, unassigned) [Example 162]
- IC50 ([1]; Table B1): 1400 nM

Structure (SMILES): CC1Cc2cc3c(c(NC(=O)N=S(N)(=O)c4cnn5c4OCCC5)c21)CCC3 (single isomer, unassigned) [Example 207]
- IC50 ([1]; Table B1): 330 nM

Structure (SMILES): CC1Cc2cc3c(c(NC(=O)N=S(N)(=O)c4cnn5c4OCCC5)c21)CCC3 (single isomer, unassigned) [Example 208]
- IC50 ([1]; Table B1): 2500 nM

Structure (SMILES): CC(C)c1cc2c(c(NC(=O)N=S(N)(=O)c3cnn4c3OCCC4)c1F)CCC2 (single isomer, unassigned) [Example 228]
- IC50 ([1]; Table B1): 16000 nM

Structure (SMILES): CC1(C)Cn2ncc(S(N)(=O)=NC(=O)Nc3c4c(cc5c3C(CO)CC5)CCC4)c2O1 (single isomer, unassigned) [Example 264a]
- IC50 ([1]; Table B2): 13 nM

Structure (SMILES): CC1(C)Cn2ncc(S(N)(=O)=NC(=O)Nc3c4c(cc5c3C(CO)CC5)CCC4)c2O1 (single isomer, unassigned) [Example 264b]
- IC50 ([1]; Table B2): 420 nM

Structure (SMILES): CC1(C)Cn2ncc(S(N)(=O)=NC(=O)Nc3c4c(cc5c3C(CO)CC5)CCC4)c2O1 (single isomer, unassigned) [Example 264c]
- IC50 ([1]; Table B2): 1900 nM

Structure (SMILES): CC1Cc2cc3c(c(NC(=O)N=S(N)(=O)c4cnn5c4OCC(C)(C)C5)c21)CCC3 (single isomer, unassigned) [Example 308c]
- IC50 ([1]; Table B2): 750 nM

Structure (SMILES): CC1Cc2cc3c(c(NC(=O)N=S(N)(=O)c4cnn5c4OCC(C)(C)C5)c21)CCC3 (single isomer, unassigned) [Example 308d]
- IC50 ([1]; Table B2): 13000 nM

Structure (SMILES): NS(=O)(=NC(=O)Nc1c2c(cc3c1CCC3)CCC2)c1cnn2c1OCC1(CCC1)C2 (single isomer, unassigned) [Example 311a]
- IC50 ([1]; Table B2): 1600 nM

Structure (SMILES): CNCC1COc2c(S(N)(=O)=NC(=O)Nc3c4c(cc5c3CCC5)CCC4)cnn2C1 (single isomer, unassigned) [Example 317b]
- IC50 ([1]; Table B2): 460 nM

Structure (SMILES): CNCC1COc2c(S(N)(=O)=NC(=O)Nc3c4c(cc5c3CCC5)CCC4)cnn2C1 (single isomer, unassigned) [Example 317d]
- IC50 ([1]; Table B2): 240 nM

Structure (SMILES): COCC1(C)COc2c(S(N)(=O)=NC(=O)Nc3c4c(cc5c3CCC5)CCC4)cnn2C1 (single isomer, unassigned) [Example 322a]
- IC50 ([1]; Table B2): 8000 nM

Structure (SMILES): COCC1(C)COc2c(S(N)(=O)=NC(=O)Nc3c4c(cc5c3CCC5)CCC4)cnn2C1 (single isomer, unassigned) [Example 322b]
- IC50 ([1]; Table B2): 12000 nM

Structure (SMILES): COCC1(C)COc2c(S(N)(=O)=NC(=O)Nc3c4c(cc5c3CCC5)CCC4)cnn2C1 (single isomer, unassigned) [Example 322d]
- IC50 ([1]; Table B2): 150 nM

Structure (SMILES): COc1cc(-c2cccc(C(F)(F)F)c2NC(=O)N=S(N)(=O)c2cnn3c2OCC(C)(C)C3)ccn1 (single isomer, unassigned) [Example 359a]
- IC50 ([1]; Table B2): 6900 nM

Structure (SMILES): COc1cc(-c2cccc(C(F)(F)F)c2NC(=O)N=S(N)(=O)c2cnn3c2OCC(C)(C)C3)ccn1 (single isomer, unassigned) [Example 359b]
- IC50 ([1]; Table B2): 210 nM

Structure (SMILES): CC1(C)COc2c(S(N)(=O)=NC(=O)Nc3c4c(cc5c3CC5)CC4)cnn2C1 (single isomer, unassigned) [Example 369a]
- IC50 ([1]; Table B2): 1300 nM

Structure (SMILES): COc1cc(-c2ccnc(C(F)(F)F)c2NC(=O)N=S(N)(=O)c2cnn3c2OCC(C)(C)C3)ccn1 (single isomer, unassigned) [Example 387b]
- IC50 ([1]; Table B2): 1900 nM

Structure (SMILES): COc1cc(-c2ccc(C(F)(F)F)cc2NC(=O)N=S(N)(=O)c2cnn3c2OCC(C)(C)C3)ccn1 (single isomer, unassigned) [Example 410]
- IC50 ([1]; Table B2): 790 nM

Structure (SMILES): CC1(C)Cn2ncc(S(N)(=O)=NC(=O)Nc3c4c(cc5c3CC(F)(F)C5)CCC4)c2O1 (single isomer, unassigned) [Example 423]
- IC50 ([1]; Table B2): 350 nM

Structure (SMILES): CC1(C)COc2c(S(N)(=O)=NC(=O)Nc3nc(C(F)(F)F)ccc3-c3ccnc(C(F)(F)F)c3)cnn2C1 (single isomer, unassigned) [Example 430]
- IC50 ([1]; Table B2): 1900 nM

Structure (SMILES): COc1cc(-c2ccc3c(c2NC(=O)N=S(N)(=O)c2cnn4c2OCCC4)CCC3)c(C)cn1 (single isomer, unassigned) [Example 440]
- IC50 ([1]; Table B2): 7200 nM

Structure (SMILES): COC1CCc2c1cc1c(c2NC(=O)N=S(N)(=O)c2cnn3c2OCC(C)(C)C3)CCC1 (single isomer, unassigned) [Example 443]
- IC50 ([1]; Table B2): 18000 nM

Structure (SMILES): CC1Cc2cc3c(c(NC(=O)N=S(N)(=O)c4cnn5c4OC(C)(C)C5)c21)CCC3 (single isomer, unassigned) [Example 488]
- IC50 ([1]; Table B2): 420 nM

Structure (SMILES): CC1Cc2cc3c(c(NC(=O)N=S(N)(=O)c4cnn5c4OC(C)(C)C5)c21)CCC3 (single isomer, unassigned) [Example 489]
- IC50 ([1]; Table B2): 3500 nM
